Converted amounts (≈) assume the structure as drawn. Non-standard residues stand in square brackets, D forms with d. Residues, ends and D or L forms follow the SMILES beside them. *: point of attachment. Palmitoyl = CCCCCCCCCCCCCCCC(=O)*
What was measured:
[1] = test system: Candida albicans “R”; format: cell-based; settings: 24 h, pH 5.6
Description: (§1) Strains of Candida albicans, Candida tropicalis and Candida glabrata, frequently found in cases of oral candidosis, were tested for L-bCtl and D-bCtl antimicrobial activity. The sensitive strain of C. albicans (ATCC 10231^TM) was provided by ATCC (Manassas, VA, USA). The resistant strain of C. albicans, the sensitive and resistant strains of C. tropicalis as well as the sensitive and resistant strains of C. glabrata were kindly provided by Dr Valérie Letscher-Bru (Laboratory of Parasitolology and Medical Mycology, Strasbourg, France).
(§2) Each Candida strain was first plated on agar plates and cultured for 24 h at 37 °C. After incubation, one colony per isolate was transferred into 5 mL of Sabouraud medium pH 5.6 (Sigma-Aldrich, Le Pont-de-Claix, France) supplemented with tetracycline (10 μg/mL) and cefotaxime (10 μg/mL) and incubated aerobically under agitation at 37 °C for 24 h. The resulting cultures were resuspended at an absorbance of 0.001 (OD600nm = 0.001) in Sabouraud medium. The OD600nm was evaluated with a spectrophotometer (BIO-RAD Smatspec^TM plus, Schiltigheim, France). In preliminary experiments, we tested RPMI-1640 culture and Sabouraud media. Similar data were obtained but the experiments were more reproducible with Sabouraud than with RPMI1640. Therefore, Sabouraud medium was used in the present study.
(§3) The yeasts (OD600nm = 0.001) were then plated on 96-well microplates and treated with different concentrations of the peptides of interest. After 24 h incubation at 37 °C under agitation, yeast growth was assessed by optical density (OD600nm) using a microplate spectrophotometer (Multiscan EX, Thermo Fisher Scientific, Waltham, MA, USA). All tests were performed in triplicate. The MIC (minimal inhibitory concentration), defined as the lowest concentration of drug able to inhibit 100% of the growth of a pathogen, was determined for the different peptides against all previously described Candida strains, using a modified Gompertz model.

[2] = test system: Candida albicans “S” (ATCC 10231); format: cell-based; settings: ATCC 10231, 24 h, pH 5.6
Description: as §1, §2, §3

MIC C. albicans “R” [1] | MIC C. albicans “S” [2] | SMILES
>100 µg/mL | >100 µg/mL | CCCCCCCCCCCCCCCC(=O)N[C@@H](CO)C(=O)N[C@@H](CO)C(=O)N[C@@H](CCSC)C(=O)N[C@@H](CCCCN)C(=O)N[C@@H](CC(C)C)C(=O)N[C@@H](CO)C(=O)N[C@@H](Cc1ccccc1)C(=O)N[C@@H](CCCNC(=N)N)C(=O)O [Peptide P16] (Palmitoyl-SSMKLSFR-OH; C-terminus assumed)
100 µg/mL (≈ 95 µM) | 50 µg/mL (≈ 47.5 µM) | CSCC[C@H](NC(=O)[C@H](CO)NC(=O)[C@@H](N)CCCNC(=N)N)C(=O)N[C@@H](CCCNC(=N)N)C(=O)N[C@@H](CC(C)C)C(=O)N[C@@H](CO)C(=O)N[C@@H](Cc1ccccc1)C(=O)N[C@@H](CCCNC(=N)N)C(=O)O [Peptide P2] (H-RSMRLSFR-OH)
>100 µg/mL | >100 µg/mL | CC(=O)N[C@@H](CC(C)C)C(=O)N[C@@H](CO)C(=O)N[C@@H](Cc1ccccc1)C(=O)N[C@@H](CCCNC(=N)N)C(=O)N[C@@H](C)C(=O)N[C@@H](CCCNC(=N)N)C(=O)O [Peptide P7] (Ac-LSFRAR-OH)
>100 µg/mL | >100 µg/mL | CSCC[C@H](NC(=O)[C@H](CO)NC(=O)[C@H](CCCNC(=N)N)NC(C)=O)C(=O)N[C@@H](CCCNC(=N)N)C(=O)N[C@@H](CC(C)C)C(=O)N[C@@H](CO)C(=O)N[C@@H](Cc1ccccc1)C(=O)N[C@@H](CCCNC(=N)N)C(=O)O [Peptide P3] (Ac-RSMRLSFR-OH)
>100 µg/mL | >100 µg/mL | CSCC[C@H](NC(=O)[C@H](CO)NC(=O)[C@@H](N)CO)C(=O)N[C@@H](CCCCN)C(=O)N[C@@H](CC(C)C)C(=O)N[C@@H](CO)C(=O)N[C@@H](Cc1ccccc1)C(=O)N[C@@H](CCCNC(=N)N)C(=O)O [Peptide P14] (H-SSMKLSFR-OH)
>100 µg/mL | >100 µg/mL | CC(=O)N[C@@H](CCCCN)C(=O)N[C@@H](CC(C)C)C(=O)N[C@@H](CO)C(=O)N[C@@H](Cc1ccccc1)C(=O)N[C@@H](CCCNC(=N)N)C(=O)N[C@@H](C)C(=O)O [Peptide P17] (Ac-KLSFRA-OH)
>100 µg/mL | >100 µg/mL | CSCC[C@H](N)C(=O)N[C@@H](CCCCN)C(=O)N[C@@H](CC(C)C)C(=O)N[C@@H](CO)C(=O)N[C@@H](Cc1ccccc1)C(=O)N[C@@H](CCCNC(=N)N)C(=O)O [Peptide P18] (H-MKLSFR-OH)
>100 µg/mL | >100 µg/mL | CSCC[C@H](NC(=O)[C@H](CO)NC(=O)[C@H](CO)NC(C)=O)C(=O)N[C@@H](CCCCN)C(=O)N[C@@H](CC(C)C)C(=O)N[C@@H](CO)C(=O)N[C@@H](Cc1ccccc1)C(=O)N[C@@H](CCCNC(=N)N)C(=O)O [Peptide P15] (Ac-SSMKLSFR-OH)

The next lines start with the compound.

SMILES | MIC C. albicans “R” [1] | MIC C. albicans “S” [2]
CC(C)C[C@@H](NC(=O)[C@H](N)CCCNC(=N)N)C(=O)N[C@H](CO)C(=O)N[C@H](Cc1ccccc1)C(=O)N[C@H](CCCNC(=N)N)C(=O)N[C@H](C)C(=O)N[C@H](Cc1c[nH]c2ccccc12)C(=O)O [Peptide P6] (H-[dR][dL][dS][dF][dR][dA][dW]-OH; N-terminus and C-terminus assumed) | >100 µg/mL | >100 µg/mL
CSCC[C@H](NC(=O)[C@H](CO)NC(=O)[C@@H](N)CO)C(=O)N[C@@H](CCCCN)C(=O)N[C@@H](CC(C)C)C(=O)N[C@@H](CO)C(=O)N[C@@H](Cc1ccccc1)C(=O)N[C@@H](CCCNC(=N)N)C(=O)N[C@@H](C)C(=O)N[C@@H](CCCNC(=N)N)C(=O)N[C@@H](C)C(=O)N[C@@H](Cc1ccc(O)cc1)C(=O)NCC(=O)N[C@@H](Cc1ccccc1)C(=O)N[C@@H](CCCNC(=N)N)C(=O)O [hCtl] (H-SSMKLSFRARAYGFR-OH) | 50 µg/mL (≈ 28.1 µM) | 50 µg/mL (≈ 28.1 µM)
CC(=O)N[C@@H](CC(C)C)C(=O)N[C@@H](CO)C(=O)N[C@@H](Cc1ccccc1)C(=O)N[C@@H](CCCNC(=N)N)C(=O)O [Peptide P10] (Ac-LSFR-OH) | >100 µg/mL | >100 µg/mL
CC(C)C[C@H](NC(=O)[C@@H](N)CCCNC(=N)N)C(=O)N[C@@H](CO)C(=O)N[C@@H](Cc1ccccc1)C(=O)N[C@@H](CCCNC(=N)N)C(=O)N[C@@H](C)C(=O)N[C@@H](Cc1c[nH]c2ccccc12)C(=O)O [Peptide P5] (H-RLSFRAW-OH) | >100 µg/mL | >100 µg/mL
CC(C)C[C@H](N)C(=O)N[C@@H](CO)C(=O)N[C@@H](Cc1ccccc1)C(=O)N[C@@H](CCCNC(=N)N)C(=O)O [Peptide P8] (H-LSFR-OH) | >100 µg/mL | >100 µg/mL
CCCCCCCCCCCCCCCC(=O)N[C@@H](CC(C)C)C(=O)N[C@@H](CO)C(=O)N[C@@H](Cc1ccccc1)C(=O)N[C@@H](CCCNC(=N)N)C(=O)O [Peptide P11] (Palmitoyl-LSFR-OH; C-terminus assumed) | >100 µg/mL | >100 µg/mL
CC(C)C[C@@H](N)C(=O)N[C@H](CO)C(=O)N[C@H](Cc1ccccc1)C(=O)N[C@H](CCCNC(=N)N)C(=O)O [Peptide P9] (H-[dL][dS][dF][dR]-OH; N-terminus and C-terminus assumed) | >100 µg/mL | >100 µg/mL
CSCC[C@H](NC(=O)[C@H](CO)NC(=O)[C@H](CO)NC(C)=O)C(=O)N[C@@H](CCCCN)C(=O)N[C@@H](CC(C)C)C(=O)N[C@@H](CO)C(=O)N[C@@H](Cc1ccccc1)C(=O)N[C@@H](CCCNC(=N)N)C(=O)N[C@@H](C)C(=O)N[C@@H](CCCNC(=N)N)C(=O)NCC(=O)N[C@@H](Cc1ccc(O)cc1)C(=O)NCC(=O)N[C@@H](Cc1ccccc1)C(=O)N[C@@H](CCCNC(=N)N)C(=O)O [Peptide P12] (Ac-SSMKLSFRARGYGFR-OH; C-terminus assumed) | >100 µg/mL | >100 µg/mL
CCCCCCCCCCCCCCCC(=O)N[C@@H](CO)C(=O)N[C@@H](CO)C(=O)N[C@@H](CCSC)C(=O)N[C@@H](CCCCN)C(=O)N[C@@H](CC(C)C)C(=O)N[C@@H](CO)C(=O)N[C@@H](Cc1ccccc1)C(=O)N[C@@H](CCCNC(=N)N)C(=O)N[C@@H](C)C(=O)N[C@@H](CCCNC(=N)N)C(=O)NCC(=O)N[C@@H](Cc1ccc(O)cc1)C(=O)NCC(=O)N[C@@H](Cc1ccccc1)C(=O)N[C@@H](CCCNC(=N)N)C(=O)O [Peptide P13] (Palmitoyl-SSMKLSFRARGYGFR-OH; C-terminus assumed) | >100 µg/mL | >100 µg/mL
CCCCCCCCCCCCCCCC(=O)N[C@@H](CCCNC(=N)N)C(=O)N[C@@H](CO)C(=O)N[C@@H](CCSC)C(=O)N[C@@H](CCCNC(=N)N)C(=O)N[C@@H](CC(C)C)C(=O)N[C@@H](CO)C(=O)N[C@@H](Cc1ccccc1)C(=O)N[C@@H](CCCNC(=N)N)C(=O)O [Peptide P4] (Palmitoyl-RSMRLSFR-OH; C-terminus assumed) | >100 µg/mL | >100 µg/mL
CCCCCCCCCCCCCCCC(=O)N[C@@H](CCSC)C(=O)N[C@@H](CCCCN)C(=O)N[C@@H](CC(C)C)C(=O)N[C@@H](CO)C(=O)N[C@@H](Cc1ccccc1)C(=O)N[C@@H](CCCNC(=N)N)C(=O)O [Peptide P19] (Palmitoyl-MKLSFR-OH; C-terminus assumed) | >100 µg/mL | >100 µg/mL

From paper PMC8876135, “The Catestatin-Derived Peptides Are New Actors to Fight the Development of Oral Candidosis” (International Journal of Molecular Sciences, 2022)
